Reference: article PMC11968394, “The effect of deuterated PLK1 inhibitor on its safety and efficacy in vivo” (Frontiers in Oncology, 2025)

How the values were obtained:
Panc04.03 = experiment: Cell viability (CellTiter-Glo, 72 h), Panc04.03; assay type: cell-based, Human; conditions: Panc04.03, 72 hours; for IC50: Homo sapiens, Panc 04.03; for Bottom: dose-response curve bottom; for Top: dose-response curve top
Method: Human pancreatic cancer cell lines (PSN1, PANC-1, Panc 04.03, MIA PaCa-2, BxPC-3, and Capan-1) were cultured in their respective culture media. PSN1 cell lines were maintained in RPMI 1640 + 10%FBS. MIA PaCa-2 cells were cultured in DMEM+10%FBS+5% horse serum. Panc 04.03 cells were grown in RPMI 1640 + 15%FBS+10μg/mL Insulin. PANC-1 cells were maintained in DMEM+10%FBS. BxPC-3 cells were cultured in RPMI 1640 + 10%FBS. Capan-1 cells were grown in IMDM+20%FBS. All cells were incubated at 37°C in a humidified atmosphere containing 5% CO2.
For assays, cells in the logarithmic growth phase were harvested, seeded to different concentrations at 2,000-6,000 cells/well in 96-well plates. Following overnight incubation, test compounds were added at various concentrations and incubated for 72 hours. Cell viability was assessed by the ATP concentration using the CellTiter-Glo reagent (Promega, Madison, WI 53711 USA), and luminescence values were recorded by a Multilabel Reader (PerkinElmer, Waltham, MA, USA).

[1] = design: method as in PMID 28726132; conditions: phase 1 clinical trial, given dosage, 5-day dosing time period; cited from earlier work
[2] = tested on: p-TCTP, a direct substrate of PLK1; experiment: Pharmacodynamics: phospho-Ser46 TCTP in PSN-1 xenograft tumors (Western blot); assay type: in vivo, M-NSG mice; conditions: 2 hours after single oral dose (60, 30, 15 mg/kg)
Method: For in vivo PK/PD studies, a PSN1 tumor model was established in female M-NSG (NOD.Cg-Prkdc^scidIl2rg^em1Smoc ) mice, which are severely immunodeficient mice lacking the interleukin 2 receptor gamma chain on a NOD.Cg-Prkdc^scid background, at Shanghai Model Organisms (Shanghai, China). Briefly, 5 × 10^6 PSN1 cells were inoculated subcutaneously into each M-NSG mouse. Once the tumors reached approximately 500 mm³, compounds were administered orally at various dosages. For PK studies, blood samples were collected at 0, 0.25, 0.5, 1, 2, 6, and 24 hours post-dose. The sera from blood were then obtained and stored at -70°C. For PD studies, tumors were harvested 2 hours after dosing and stored at -70°C.The serum and tumor samples were then transported to PRECEDO (Hefei, Anhui, China) for further PK/PD studies.
For PD study, tumor tissues (~30 mg) were homogenized in 350 µL Lysis Buffer. After centrifugation, protein concentration in supernatants was determined by BCA assay. Samples were prepared for SDS-PAGE and run on 10% gels. Proteins were transferred to PVDF membranes, blocked, and incubated with anti-Phospho-TCTP (Ser46) Antibody (Cell Signaling Technology, Danvers, MA, USA) (1:1,000) overnight at 4°C. After washing, membranes were incubated with HRP-anti-Rabbit IgG (Cell Signaling Technology, Danvers, MA, USA) (1:3,000) for 1 hour, then treated with ECL reagents for imaging.

CLK2 = CLK2 (Homo sapiens, UniProt P49760); experiment: Kinase assay CLK2; assay type: biochemical
Chain of CLK2 (P49760 whole entry, species assumed): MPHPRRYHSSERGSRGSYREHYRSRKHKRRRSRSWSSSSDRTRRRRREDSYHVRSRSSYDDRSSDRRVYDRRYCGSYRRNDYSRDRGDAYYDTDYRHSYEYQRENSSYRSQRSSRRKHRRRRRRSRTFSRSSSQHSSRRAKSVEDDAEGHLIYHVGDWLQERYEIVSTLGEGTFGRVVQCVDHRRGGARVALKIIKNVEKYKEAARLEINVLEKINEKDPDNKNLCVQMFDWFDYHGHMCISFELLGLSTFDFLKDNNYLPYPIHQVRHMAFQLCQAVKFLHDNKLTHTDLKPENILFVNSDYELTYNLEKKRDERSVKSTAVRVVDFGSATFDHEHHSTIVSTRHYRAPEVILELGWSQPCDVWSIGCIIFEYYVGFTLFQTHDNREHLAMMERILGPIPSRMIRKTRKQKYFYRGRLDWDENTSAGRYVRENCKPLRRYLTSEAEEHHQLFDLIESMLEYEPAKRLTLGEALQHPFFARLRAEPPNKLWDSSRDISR
Method: (§1) Serial dilutions in DMSO were prepared. PLK1 was serially diluted 5-fold from 10 μM, yielding concentrations from 10000 nM to 0.00512 nM. Other targets were serially diluted 3-fold from 10 μM, yielding concentrations from 10000 nM to 0.5 nM. We have used two kinase assays: HTRF assay and ADG-Glo assay.
(§2) For HTRF Assay, 2× ATP/substrate solution and 2× kinase solution were prepared in kinase reaction buffer. Using an Echo 655, 50 nL of each diluted compound was transferred to a 384-well detection plate. The plate was centrifuged at 1000 rpm for 1 minute. 2.5 μL of 2× kinase solution was added to each well. The plate was incubated at 25°C for 10 minutes. 2.5 μL of 2× ATP/substrate solution was added to each well. The plate was centrifuged at 1000 rpm for 1 minute. The plate was incubated at 25°C for 40 minutes. 2× XL665 and antibody detection reagent were prepared in detection buffer. 5 μL of the prepared kinase detection reagent was added to each well. The plate was centrifuged at 1000 rpm for 1 minute. The plate was incubated at 25°C for 1 hour. Fluorescence signals at 620 nm (Cryptate) and 665 nm (XL665) were measured using a multifunction plate reader.
(§3) For ADP-Glo Assay, 2× ATP/substrate solution and 2× kinase solution were prepared in kinase reaction buffer. […] Luminescence signals were measured using a multifunction plate reader.

CLK4 = CLK4 (Homo sapiens, UniProt Q9HAZ1); experiment: Kinase assay CLK4; assay type: biochemical
Chain of CLK4 (Q9HAZ1 whole entry, species assumed): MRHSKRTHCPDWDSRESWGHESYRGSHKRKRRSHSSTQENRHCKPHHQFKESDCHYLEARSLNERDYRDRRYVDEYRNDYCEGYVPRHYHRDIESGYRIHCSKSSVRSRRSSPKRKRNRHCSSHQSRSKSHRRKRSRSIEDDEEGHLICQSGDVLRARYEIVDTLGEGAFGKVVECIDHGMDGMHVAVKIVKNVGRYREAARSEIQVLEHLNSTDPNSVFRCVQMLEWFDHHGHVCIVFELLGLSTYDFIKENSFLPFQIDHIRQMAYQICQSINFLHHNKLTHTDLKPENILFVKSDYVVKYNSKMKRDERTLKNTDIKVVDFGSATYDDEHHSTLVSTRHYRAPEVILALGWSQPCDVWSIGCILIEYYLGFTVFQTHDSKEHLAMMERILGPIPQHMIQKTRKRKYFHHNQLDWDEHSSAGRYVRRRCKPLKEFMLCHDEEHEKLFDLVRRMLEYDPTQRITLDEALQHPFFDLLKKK
Method: as §1, §2, §3

RON = RON (Homo sapiens, UniProt Q04912); experiment: Kinase assay RON; assay type: biochemical
Chain of RON (Q04912 25-1400, species assumed): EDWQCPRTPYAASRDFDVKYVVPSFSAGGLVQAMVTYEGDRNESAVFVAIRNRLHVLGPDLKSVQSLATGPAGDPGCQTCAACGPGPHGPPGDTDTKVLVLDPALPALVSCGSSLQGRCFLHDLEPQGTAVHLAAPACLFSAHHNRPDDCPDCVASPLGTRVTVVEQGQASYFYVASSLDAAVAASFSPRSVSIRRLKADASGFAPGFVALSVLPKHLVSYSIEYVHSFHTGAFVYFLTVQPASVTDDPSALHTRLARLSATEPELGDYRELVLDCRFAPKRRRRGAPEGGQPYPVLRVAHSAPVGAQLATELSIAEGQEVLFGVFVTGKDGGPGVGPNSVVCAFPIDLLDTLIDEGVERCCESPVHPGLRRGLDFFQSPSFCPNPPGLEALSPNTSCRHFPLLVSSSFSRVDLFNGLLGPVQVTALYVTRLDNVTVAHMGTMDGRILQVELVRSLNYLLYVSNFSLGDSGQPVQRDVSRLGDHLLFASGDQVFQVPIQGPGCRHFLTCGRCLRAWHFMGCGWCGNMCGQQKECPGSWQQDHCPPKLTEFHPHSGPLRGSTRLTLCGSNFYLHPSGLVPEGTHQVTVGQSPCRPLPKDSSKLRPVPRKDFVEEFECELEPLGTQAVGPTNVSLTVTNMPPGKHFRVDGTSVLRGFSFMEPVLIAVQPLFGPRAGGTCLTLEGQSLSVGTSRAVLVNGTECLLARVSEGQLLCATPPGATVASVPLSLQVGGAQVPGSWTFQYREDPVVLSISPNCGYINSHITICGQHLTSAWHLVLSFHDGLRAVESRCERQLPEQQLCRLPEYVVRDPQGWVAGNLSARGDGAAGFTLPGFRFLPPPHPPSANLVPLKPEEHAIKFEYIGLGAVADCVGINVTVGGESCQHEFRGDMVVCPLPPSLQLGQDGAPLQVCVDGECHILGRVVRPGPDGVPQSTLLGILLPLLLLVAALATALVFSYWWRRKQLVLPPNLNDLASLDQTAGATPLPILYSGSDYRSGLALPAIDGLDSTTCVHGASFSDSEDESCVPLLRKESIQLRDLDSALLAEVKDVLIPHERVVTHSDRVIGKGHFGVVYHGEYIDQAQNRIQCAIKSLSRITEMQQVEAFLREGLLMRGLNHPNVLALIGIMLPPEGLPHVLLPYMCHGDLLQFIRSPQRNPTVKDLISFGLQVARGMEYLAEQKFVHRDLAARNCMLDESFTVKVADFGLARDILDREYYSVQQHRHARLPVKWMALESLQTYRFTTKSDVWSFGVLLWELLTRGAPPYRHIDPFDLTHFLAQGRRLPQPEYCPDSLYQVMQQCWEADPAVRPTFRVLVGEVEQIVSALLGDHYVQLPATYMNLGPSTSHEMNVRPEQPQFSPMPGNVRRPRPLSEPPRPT
Method: as §1, §2, §3

CN1CCN(c2ccc(OC(F)(F)F)c(Nc3ncc4c(n3)-c3c(c(C(N)=O)nn3CCO)CC4)c2)CC1 [NMS-P937]
IC50 (Panc04.03): 73 nM
Bottom (Panc04.03): -4
Top (Panc04.03): 29.5
Tolerability [1]: well tolerated
p-TCTP signal in tumors [2]: reduced p-TCTP signal
IC50 (CLK2): 37 nM
IC50 (CLK4): 278 nM
IC50 (RON): 1090 nM

[2H]C1([2H])N(C)C([2H])([2H])C([2H])([2H])N(c2ccc(OC(F)(F)F)c(Nc3ncc4c(n3)-c3c(c(C(N)=O)nn3CCO)CC4)c2)C1([2H])[2H] [PR00012]
IC50 (Panc04.03): 83.8 nM
Bottom (Panc04.03): 10.8
Top (Panc04.03): 42.5
p-TCTP signal in tumors [2]: reduced p-TCTP signal
IC50 (CLK2): 24.8 nM
IC50 (CLK4): 231 nM
IC50 (RON): 905 nM
